# According to publication PMC10600247, “Impact of C- and N-terminal protection on the stability, metal chelation and antimicrobial properties of calcitermin” (Scientific Reports, 2023):
# Residues, ends and D or L forms follow the SMILES beside them.
# Legend:
# S. aureus (ATCC 25293) = test: In vitro anti-S. aureus CFU assay; format: cell-based, Staphylococcus aureus; conditions: 3 h, pH 5.4; for mean CFU number ± S.D.: per 0.1 mL
# Outline: (§1)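 Peptides (final 0.128, 0.064, 0.032 mg/mL), alone or with ZnCl2 or CuCl2 at M:L 0.9:1, were incubated with 10^3 CFU/well in PBS pH 5.4 plus 1.5% TSB at 37 °C with slow rocking for 3 and 24 h. Aliquots were plated on TSA and CFU counted after 24 h; triplicate.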
# C. albicans (ATCC 10231) = test: In vitro antifungal CFU assay; format: cell-based, Candida albicans; conditions: pH 5.4; for mean CFU number ± S.D.: per 0.1 mL
# Outline: as §1
# in vitro = conditions: human, pH 7.4
# Outline: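 Peptides (1·10^–4 M) or their 1:1 metal complexes incubated at 37 °C in pooled human plasma diluted 1:1 with ammonium acetate buffer pH 7.4, with L-phenylalaninol internal standard. Aliquots taken at intervals, quenched with HClO4 and centrifuged; supernatants analysed by C18 reverse-phase HPLC with UV detection at 210 nm.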
# [1] = peptide 0.032 mg/mL + CuCl2 (0.9:1)
# [2] = peptide 0.032 mg/mL + ZnCl2 (0.9:1)
# [3] = peptide 0.064 mg/mL + CuCl2 (0.9:1)
# [4] = peptide 0.064 mg/mL + ZnCl2 (0.9:1)
# [5] = peptide 0.128 mg/mL + CuCl2 (0.9:1)
# [6] = peptide 0.032 mg/mL + CuCl2 (0.9:1), 3 h
# [7] = peptide 0.032 mg/mL + CuCl2 (0.9:1), 24 h
# [8] = peptide 0.032 mg/mL + ZnCl2 (0.9:1), 3 h
# [9] = peptide 0.032 mg/mL + ZnCl2 (0.9:1), 24 h
# [10] = peptide 0.064 mg/mL + CuCl2 (0.9:1), 3 h
# [11] = peptide 0.064 mg/mL + CuCl2 (0.9:1), 24 h
# [12] = peptide 0.064 mg/mL + ZnCl2 (0.9:1), 3 h
# [13] = peptide 0.064 mg/mL + ZnCl2 (0.9:1), 24 h
# [14] = peptide 0.128 mg/mL + CuCl2 (0.9:1), 3 h
# [15] = peptide 0.128 mg/mL + CuCl2 (0.9:1), 24 h
# [16] = peptide alone 0.032 mg/mL, 24 h
# [17] = peptide alone 0.064 mg/mL, 24 h
# [18] = peptide alone 0.128 mg/mL, 24 h
smiles,measurement,setting,value
"CC[C@H](C)[C@H](NC(=O)[C@H](C)NC(=O)[C@@H](N)C(C)C)C(=O)N[C@@H](C)C(=O)N[C@@H](CC(C)C)C(=O)N[C@@H](CCCCN)C(=O)N[C@@H](C)C(=O)N[C@@H](C)C(=O)N[C@@H](Cc1c[nH]cn1)C(=O)N[C@@H](Cc1ccc(O)cc1)C(=O)N[C@@H](Cc1c[nH]cn1)C(=O)N[C@H](C(=O)N[C@@H](Cc1c[nH]cn1)C(=O)N[C@@H](CCCCN)C(=O)N[C@@H](CCC(=O)O)C(=O)O)[C@@H](C)O [WT, VAIALKAAHYHTHKE, reference compound] (H-VAIALKAAHYHTHKE-OH)",CFU decrease/increase with respect to untreated controls,S. aureus (ATCC 25293); [1],+30%
same,mean CFU number ± S.D.,S. aureus (ATCC 25293); [1],209 ± 44 CFU
same,CFU decrease/increase with respect to untreated controls,S. aureus (ATCC 25293); [2],+5%
same,mean CFU number ± S.D.,S. aureus (ATCC 25293); [2],169 ± 40 CFU
same,CFU decrease/increase with respect to untreated controls,S. aureus (ATCC 25293); [3],+9%
same,mean CFU number ± S.D.,S. aureus (ATCC 25293); [3],175 ± 30 CFU
same,CFU decrease/increase with respect to untreated controls,S. aureus (ATCC 25293); [4],-14%
same,mean CFU number ± S.D.,S. aureus (ATCC 25293); [4],139 ± 20 CFU
same,CFU decrease/increase with respect to untreated controls,S. aureus (ATCC 25293); [5],+42%
same,mean CFU number ± S.D.,S. aureus (ATCC 25293); [5],229 ± 55 CFU
same,CFU decrease/increase with respect to untreated controls,"S. aureus (ATCC 25293); peptide 0.128 mg/mL + ZnCl2 (0.9:1), listed as WT calcitermin",-41%
same,mean CFU number ± S.D.,S. aureus (ATCC 25293); peptide 0.128 mg/mL + ZnCl2 (0.9:1),96 ± 21 CFU
same,CFU decrease/increase with respect to untreated controls,S. aureus (ATCC 25293); peptide alone 0.032 mg/mL,-9.3%
same,mean CFU number ± S.D.,S. aureus (ATCC 25293); peptide alone 0.032 mg/mL,146 ± 7 CFU
same,CFU decrease/increase with respect to untreated controls,S. aureus (ATCC 25293); peptide alone 0.064 mg/mL,-1.2%
same,mean CFU number ± S.D.,S. aureus (ATCC 25293); peptide alone 0.064 mg/mL,159 ± 45 CFU
same,CFU decrease/increase with respect to untreated controls,S. aureus (ATCC 25293); peptide alone 0.128 mg/mL,-1.8%
same,mean CFU number ± S.D.,S. aureus (ATCC 25293); peptide alone 0.128 mg/mL,158 ± 59 CFU
same,CFU decrease/increase with respect to untreated controls,C. albicans (ATCC 10231); [6],-12%
same,mean CFU number ± S.D.,C. albicans (ATCC 10231); [6],74 ± 28 CFU
same,CFU decrease/increase with respect to untreated controls,C. albicans (ATCC 10231); [7],-0.4%
same,mean CFU number ± S.D.,C. albicans (ATCC 10231); [7],"1,771 ± 309 CFU"
same,CFU decrease/increase with respect to untreated controls,C. albicans (ATCC 10231); [8],-20%
same,mean CFU number ± S.D.,C. albicans (ATCC 10231); [8],67 ± 35 CFU
same,CFU decrease/increase with respect to untreated controls,C. albicans (ATCC 10231); [9],-31%
same,mean CFU number ± S.D.,C. albicans (ATCC 10231); [9],"1,235.8 ± 235 CFU"
same,CFU decrease/increase with respect to untreated controls,C. albicans (ATCC 10231); [10],+1%
same,mean CFU number ± S.D.,C. albicans (ATCC 10231); [10],85 ± 24 CFU
same,CFU decrease/increase with respect to untreated controls,C. albicans (ATCC 10231); [11],-16%
same,mean CFU number ± S.D.,C. albicans (ATCC 10231); [11],"1,489 ± 111 CFU"
same,CFU decrease/increase with respect to untreated controls,C. albicans (ATCC 10231); [12],-43%
same,mean CFU number ± S.D.,C. albicans (ATCC 10231); [12],48.3 ± 22 CFU
same,CFU decrease/increase with respect to untreated controls,C. albicans (ATCC 10231); [13],-58%
same,mean CFU number ± S.D.,C. albicans (ATCC 10231); [13],754.3 ± 323 CFU
same,CFU decrease/increase with respect to untreated controls,C. albicans (ATCC 10231); [14],-35%
same,mean CFU number ± S.D.,C. albicans (ATCC 10231); [14],55 ± 11 CFU
same,CFU decrease/increase with respect to untreated controls,C. albicans (ATCC 10231); [15],-0.6%
same,mean CFU number ± S.D.,C. albicans (ATCC 10231); [15],"1,790 ± 393 CFU"
same,CFU decrease/increase with respect to untreated controls,"C. albicans (ATCC 10231); peptide 0.128 mg/mL + ZnCl2 (0.9:1), 3 h, listed as WT calcitermin",-49%
same,mean CFU number ± S.D.,"C. albicans (ATCC 10231); peptide 0.128 mg/mL + ZnCl2 (0.9:1), 3 h",42.7 ± 11 CFU
same,CFU decrease/increase with respect to untreated controls,"C. albicans (ATCC 10231); peptide 0.128 mg/mL + ZnCl2 (0.9:1), 24 h, listed as WT calcitermin",-96%
same,mean CFU number ± S.D.,"C. albicans (ATCC 10231); peptide 0.128 mg/mL + ZnCl2 (0.9:1), 24 h",62.8 ± 33 CFU
same,CFU decrease/increase with respect to untreated controls,"C. albicans (ATCC 10231); peptide alone 0.032 mg/mL, 3 h, listed as WT calcitermin",-67%
same,mean CFU number ± S.D.,"C. albicans (ATCC 10231); peptide alone 0.032 mg/mL, 3 h",28 ± 15 CFU
same,CFU decrease/increase with respect to untreated controls,C. albicans (ATCC 10231); [16],-24%
same,mean CFU number ± S.D.,C. albicans (ATCC 10231); [16],"1,348± 698 CFU"
same,CFU decrease/increase with respect to untreated controls,"C. albicans (ATCC 10231); peptide alone 0.064 mg/mL, 3 h, listed as WT calcitermin",-67%
same,mean CFU number ± S.D.,"C. albicans (ATCC 10231); peptide alone 0.064 mg/mL, 3 h",28 ± 15 CFU
same,CFU decrease/increase with respect to untreated controls,C. albicans (ATCC 10231); [17],-33%
same,mean CFU number ± S.D.,C. albicans (ATCC 10231); [17],"1,289 ± 495 CFU"
same,CFU decrease/increase with respect to untreated controls,"C. albicans (ATCC 10231); peptide alone 0.128 mg/mL, 3 h, listed as WT calcitermin",-73%
same,mean CFU number ± S.D.,"C. albicans (ATCC 10231); peptide alone 0.128 mg/mL, 3 h",22.4 ± 15 CFU
same,CFU decrease/increase with respect to untreated controls,C. albicans (ATCC 10231); [18],-41%
same,mean CFU number ± S.D.,C. albicans (ATCC 10231); [18],"1,052 ± 531 CFU"
same,half-life,in vitro,18 ± 3 min
